Series [1] has as its target CDK2/cyclin A (Homo sapiens, UniProt P24941). Put plainly: CDK2 inhibition, Kinase-Glo Luminescent Kinase Assay. Format: biochemical. To be noted: for IC50: geometric means of n ⩾ 3 experiments, 10 µM ATP, read-out: IC50 against CDK2; for inhibition at 0.5 µM: read-out: inhibition rate (%) @0.5 μM against CDK2, compound at 0.5 μM; for CDK2 inhibitory activity (in words): screened at 0.5 μM. As to the method:
The IC50 values were calculated using Prism GraphPad software.
In general terms: Kinase-Glo measures the ATP left after a reaction by luminescence.

Where a name gives a salt, the structure may show the parent alone.

The term melting point denotes the temperature, or range, at which the solid turns liquid. Usually IC50 stands for the concentration that inhibits the measured activity by half. The term inhibition denotes the drop in the measured response relative to a control, in per cent.

For the molecule `Cl.NCc1ccc(-c2nc(Nc3ccccc3)nc3[nH]cnc23)cc1` [Compound 11g, 6-(4-(aminomethyl)phenyl)-N-phenyl-9H-purin-2-amine hydrochloride], the melting point is 200 to 202 °C. Further, the IC50 in series [1] is 130 ± 20 nM.

Consider `Cl.NCCc1cccc(-c2nc(Nc3cccc([N+](=O)[O-])c3)nc3[nH]cnc23)c1` [Compound 11e, 6-(3-(2-aminoethyl)phenyl)-N-(3-nitrophenyl)-9H-purin-2-amine hydrochloride], for which the melting point was > 230 °C. Further, the inhibition at 0.5 µM in series [1] was 35%.

As to `O=[N+]([O-])c1cccc(Nc2nc(-c3cccc4ccccc34)c3nc[nH]c3n2)c1` [Compound 5b, 6-(naphthalen-1-yl)-N-(3-nitrophenyl)-9H-purin-2-amine], the melting point was > 300 °C. Moreover, in series [1], the inhibition at 0.5 µM was 3% and the “CDK2 inhibitory activity (in words)” value is given as “weak activity”.

For `CC(C)(C)c1ccc(Nc2nc(-c3cccc(CN)c3)c3nc[nH]c3n2)cc1` [Compound 11j, 6-(3-(aminomethyl)phenyl)-N-(4-(tert-butyl)phenyl)-9H-purin-2-amine hydrochloride], the inhibition at 0.5 µM in series [1] amounted to 28%.

For `CN(C)S(=O)(=O)c1ccc(Nc2nc(-c3cccc(CN)c3)c3nc[nH]c3n2)cc1.Cl` [Compound 11q, 4-((6-(3-(aminomethyl)phenyl)-9H-purin-2-yl)amino)-N,N-dimethylbenzene sulfonamide hydrochloride], the melting point was > 300 °C. The IC50 in series [1] is 180 ± 20 nM.

Take `Cc1ccc(Nc2nc(-c3cccc(CN)c3)c3nc[nH]c3n2)cc1.Cl` [Compound 11i, 6-(3-(aminomethyl)phenyl)-N-(p-tolyl)-9H-purin-2-amine hydrochloride]: the melting point is > 300 °C. In addition, in series [1], the IC50 came to 280 ± 20 nM.

For “6-(3-(aminomethyl)phenyl)-N-(4-(piperazin-1-yl)phenyl)-9H-purin-2-amine dihydrochloride [Compound 11r]”, the IC50 in series [1] stood at 190 ± 10 nM.

On to `Cl.NCc1cccc(-c2nc(Nc3ccc(N4CCNCC4)cc3)nc3[nH]cnc23)c1` [Compound 11k, 6-(3-(aminomethyl)phenyl)-N-(4-(piperazin-1-yl)phenyl)-9H-purin-2-amine hydrochloride], for which the melting point is > 300 °C. The inhibition at 0.5 µM in series [1] came out at 26%.

Regarding `NCc1ccc(-c2nc(Nc3ccc(F)cc3)nc3[nH]cnc23)cc1` [Compound 11o, 6-(4-(aminomethyl)phenyl)-N-(4-fluorophenyl)-9H-purin-2-amine hydrochloride], the IC50 in series [1] worked out at 240 ± 10 nM.

`O=[N+]([O-])c1cccc(Nc2nc(-c3ccsc3)c3nc[nH]c3n2)c1` [Compound 5e, N-(3-nitrophenyl)-6-(thiophen-3-yl)-9H-purin-2-amine]: the melting point was > 280 °C. Also, the “CDK2 inhibitory activity (in words)” value in series [1] was “inactive”.

With `O=[N+]([O-])c1cccc(Nc2nc(-c3cccc([N+](=O)[O-])c3)c3nc[nH]c3n2)c1` [Compound 5f, N,6-bis(3-nitrophenyl)-9H-purin-2-amine], the melting point is > 300 °C. Moreover, the “CDK2 inhibitory activity (in words)” value in series [1] is listed as “abolished CDK2 inhibitory activity”.

`O=[N+]([O-])c1cccc(Nc2nc(-c3ccc(F)cc3)c3nc[nH]c3n2)c1` [Compound 5i, 6-(4-fluorophenyl)-N-(3-nitrophenyl)-9H-purin-2-amine]: in series [1], the “CDK2 inhibitory activity (in words)” value was “abolished CDK2 inhibitory activity”.

Turning to `O=[N+]([O-])c1cccc(Nc2nc(-c3ccccc3)c3nc[nH]c3n2)c1` [Compound 5a, N-(3-nitrophenyl)-6-phenyl-9H-purin-2-amine], in series [1], the IC50 turned out to be 310 ± 10 nM.

On to `O=C(O)c1cccc(-c2nc(Nc3cccc([N+](=O)[O-])c3)nc3[nH]cnc23)c1` [Compound 5g, 3-(2-((3-nitrophenyl)amino)-9H-purin-6-yl)benzoic acid], for which the IC50 in series [1] was determined as 150 ± 10 nM.

The values are drawn from article PMC9110766, “Structure-Based Design of 2-Aminopurine Derivatives as CDK2 Inhibitors for Triple-Negative Breast Cancer” (Frontiers in Pharmacology, 2022).
